Experimental data taken from patent US9822099B2, “Triazole derivatives” (priority 2013, dated 2017).
Where two headings read alike, the source gives them in different places. Marks after values point to notes of the source that are not given here.

Key:
Botrytis cinerea = assay: Example A: in vivo preventive test on Botrytis cinerea (grey mould); conditions: gherkin plants, preventive spray, evaluated 4 to 5 days after inoculation
Protocol: The young plants of gherkin are treated by spraying the active ingredient prepared as described above. Control plants are treated only with an aqueous solution of acetone/Dimethyl sulfoxide/Tween®. After 24 hours, the plants are contaminated by spraying the leaves with an aqueous suspension of Botrytis cinerea spores.

Puccinia recondita = assay: Example B: in vivo preventive test on Puccinia recondita (brown rust on wheat); conditions: wheat plants, preventive spray, evaluated 11 days after inoculation
Protocol: The young plants of wheat are treated by spraying the active ingredient prepared as described above. Control plants are treated only with an aqueous solution of acetone/Dimethyl sulfoxide/Tween®. After 24 hours, the plants are contaminated by spraying the leaves with an aqueous suspension of Puccinia recondita spores.

Septoria tritici = assay: Example D: in vivo preventive test on Septoria tritici (leaf spot on wheat); conditions: wheat plants, preventive spray, evaluated 24 days after inoculation
Protocol: The young plants of wheat are treated by spraying the active ingredient prepared as described above. Control plants are treated only with an aqueous solution of acetone/Dimethyl sulfoxide/Tween®. After 24 hours, the plants are contaminated by spraying the leaves with an aqueous suspension of Septoria tritici spores.

Sphaerotheca fuliginea = assay: Example E: in vivo preventive test on Sphaerotheca fuliginea (powdery mildew on cucurbits); conditions: gherkin plants, preventive spray, evaluated 15 days after inoculation
Protocol: The young plants of gherkin are treated by spraying the active ingredient prepared as described above. Control plants are treated only with an aqueous solution of acetone/Dimethyl sulfoxide/Tween®. After 24 hours, the plants are contaminated by spraying the leaves with an aqueous suspension of Sphaerotheca fuliginea spores.

Uromyces appendiculatus = assay: Example F: in vivo preventive test on Uromyces appendiculatus (bean rust); conditions: bean plants, preventive spray, evaluated 11 days after inoculation
Protocol: The young plants of bean are treated by spraying the active ingredient prepared as described above. Control plants are treated only with an aqueous solution of acetone/Dimethyl sulfoxide/Tween®. After 24 hours, the plants are contaminated by spraying the leaves with an aqueous suspension of Uromyces appendiculatus spores.

Pyrenophora teres = assay: Example C: in vivo preventive test on Pyrenophora teres (net blotch on barley); conditions: barley plants, preventive spray, evaluated 14 days after inoculation
Protocol: The young plants of barley are treated by spraying the active ingredient prepared as described above. Control plants are treated only with an aqueous solution of acetone/Dimethyl sulfoxide/Tween®. After 24 hours, the plants are contaminated by spraying the leaves with an aqueous suspension of Pyrenophora teres spores.

| SMILES | Eff. % (Puccinia recondita; 500 ppm of active ingredient) [%] | Eff. % (Septoria tritici; 500 ppm of active ingredient) [%] | Eff. % (Sphaerotheca fuliginea; 500 ppm of active ingredient) [%] | Eff. % (Uromyces appendiculatus; 500 ppm of active ingredient) [%] | LogP (pH 2.7) | Eff. % (Sphaerotheca fuliginea; 100 ppm of active ingredient) [%] | Eff. % (Uromyces appendiculatus; 100 ppm of active ingredient) [%] | other results |
| --- | --- | --- | --- | --- | --- | --- | --- | --- |
| OC(Cc1ncccc1Cl)(Cn1cncn1)C1(Cl)CC1 (stereo not shown) [Example I-2] | 94 | 100 | 95 | 100 | 2.28^[a] | – | – | Eff. % (Botrytis cinerea; 500 ppm of active ingredient): 94% |
| CC(C)(Oc1ccc(F)cc1)C(O)(Cc1ccncc1Cl)Cn1cncn1 (racemic) [Example I-91] | 89 | 100 | 98 | 97 | 2.48^[a] | – | – | Eff. % (Botrytis cinerea; 500 ppm of active ingredient): 95%; LogP (pH 7.8): 2.60^[b]; |
| OC(Cc1ccncc1F)(Cn1cncn1)c1cccnc1Cl (stereo not shown) [Example I-23] | – | – | – | – | 0.91^[a] | 88 | 92 | – |
| COc1nccnc1CC(O)(Cn1cncn1)C1(Cl)CC1 (racemic) [Example I-72] | – | 80 | 98 | 100 | 1.88^[a] | – | – | – |
| OC(Cc1cc(Oc2ccc(Cl)cc2)nnc1Cl)(Cn1cncn1)C1(Cl)CC1 (stereo not shown) [Example I-55] | 79 | 100 | 100 | 98 | 3.08^[a] | – | – | – |
| Cc1cccc2cc(CC(O)(Cn3cncn3)C3(Cl)CC3)c(Cl)nc12 (racemic) [Example I-84] | 88 | – | – | 100 | 3.53^[a] | – | – | Eff. % (Septoria tritici; 100 ppm of active ingredient): 81% |
| OC(COc1ccc(F)cc1)(Cc1ccncc1Cl)Cn1cncn1 (racemic) [Example I-79] | 98 | 100 | 100 | 100 | 1.86^[a] | – | – | Eff. % (Botrytis cinerea; 500 ppm of active ingredient): 99% |
| OC(CCc1ccccc1Cl)(Cc1ccncc1Cl)Cn1cncn1 (racemic) [Example I-68] | 94 | 100 | 100 | 100 | 2.29^[a] | – | – | Eff. % (Pyrenophora teres; 500 ppm of active ingredient): 71% |
| OC(Cc1ccnc(Cl)c1F)(Cn1cncn1)C1(F)CC1 (racemic) [Example I-87] | 89 | 83 | 72 | 78 | 1.23^[a] | – | – | – |
| OC(Cc1ccccc1F)(Cc1cc(F)ncc1Cl)Cn1cncn1 (racemic) [Example I-64] | 83 | 97 | 100 | 94 | 2.46^[a] | – | – | – |
| OC(Cc1ccncc1Cl)(Cn1cncn1)c1ccc(Cl)nc1 (stereo not shown) [Example I-13] | – | – | – | – | 1.26^[a] | 94 | 95 | – |
| OC(Cc1ccncc1Cl)(Cn1cncn1)c1ccc2oc3ccccc3c2c1 (racemic) [Example I-80] | 88 | 100 | 100 | 99 | – | – | – | LogP (method [a]: LC-MS at pH 2.7, 0.1% formic acid in water / acetonitrile gradient): 2.40^[a] |
| OC(Cc1cncc(Oc2ccc(Cl)cc2)n1)(Cn1cncn1)C1(Cl)CC1 (stereo not shown) [Example I-56] | 86 | 92 | 100 | 96 | 2.88^[a] | – | – | Eff. % (Pyrenophora teres; 500 ppm of active ingredient): 88% |
| OC(Cc1cccc(Cl)c1)(Cc1ccnc(Cl)c1F)Cn1cncn1 (racemic) [Example I-88] | 89 | 100 | 98 | – | 2.02^[a] | – | – | – |
| OC(Cc1ccc(F)cc1)(Cc1ccncc1Cl)Cn1cncn1 (racemic) [Example I-75] | 81 | 100 | 100 | – | 1.93^[a] | – | – | – |
| OC(Cc1ccncc1Cl)(Cn1cncn1)c1cccnc1Cl (stereo not shown) [Example I-14] | – | – | – | – | 1.23^[a] | 100 | 87 | – |

| SMILES | Eff. % (Puccinia recondita; 500 ppm of active ingredient) [%] | Eff. % (Septoria tritici; 500 ppm of active ingredient) [%] | Eff. % (Sphaerotheca fuliginea; 500 ppm of active ingredient) [%] | Eff. % (Uromyces appendiculatus; 500 ppm of active ingredient) [%] | LogP (pH 2.7) | Eff. % (Sphaerotheca fuliginea; 100 ppm of active ingredient) [%] | Eff. % (Uromyces appendiculatus; 100 ppm of active ingredient) [%] | other results |
| --- | --- | --- | --- | --- | --- | --- | --- | --- |
| OC(Cc1cc(Cl)ncc1F)(Cn1cncn1)C1(F)CC1 (stereo not shown) [Example I-41] | – | – | – | – | 1.66^[a] | 100 | 94 | – |
| OC(Cc1cc(Cl)nc(Cl)c1)(Cn1cncn1)C1(Cl)CC1 (stereo not shown) [Example I-26] | – | – | – | – | 2.54^[a] | 100 | – | Eff. % (Septoria tritici; 100 ppm of active ingredient): 97% |
| OC(Cc1ccccc1F)(Cc1cc(Cl)ncc1F)Cn1cncn1 (racemic) [Example I-73] | – | 100 | 100 | – | 2.34^[a] | – | – | – |
| OC(Cc1ccc2ccccc2n1)(Cn1cncn1)C1(Cl)CC1 (stereo not shown) [Example I-1] | – | – | – | – | 1.64^[a] | – | 80 | Eff. % (Pyrenophora teres; 100 ppm of active ingredient): 83% |
| OC(Cc1cc(Cl)cc(Cl)n1)(Cn1cncn1)C1(Cl)CC1 (stereo not shown) [Example I-17] | – | – | – | – | 2.76^[a] | 100 | 94 | Eff. % (Septoria tritici; 100 ppm of active ingredient): 97% |
| OC(Cc1ccnc(Cl)c1F)(Cn1cncn1)c1cccnc1Cl (stereo not shown) [Example I-59] | 98 | 100 | 100 | 100 | 1.54^[a] | – | – | – |
| OC(Cc1cnccn1)(Cn1cncn1)C1(Cl)CC1 (stereo not shown) [Example I-11] | – | – | – | – | 1.13^[a] | 79 | 75 | – |
| CC(CF)(CF)C(O)(Cc1cc(Cl)ncc1F)Cn1cncn1 (stereo not shown) [Example I-44] | – | – | – | – | 1.89^[a] | 100 | 94 | – |
| CC(C)(CCl)C(O)(Cc1ccncc1Cl)Cn1cncn1 (racemic) [Example I-90] | – | 78 | 100 | – | 1.76^[a] | – | – | Eff. % (Botrytis cinerea; 500 ppm of active ingredient): 100%; LogP (pH 7.8): 1.96^[b]; |
| OC(Cc1ccncc1F)(Cn1cncn1)c1ccc(Cl)nc1 (stereo not shown) [Example I-24] | – | – | – | – | 0.99^[a] | 94 | 92 | – |
| OC(Cc1ccccc1F)(Cc1ccncc1Cl)Cn1cncn1 (stereo not shown) [Example I-12] | – | – | – | – | 1.96^[a] | 100 | – | Eff. % (Septoria tritici; 100 ppm of active ingredient): 88% |
| Cc1cccc(CC(O)(Cn2cncn2)C2(Cl)CC2)n1 (stereo not shown) [Example I-48] | – | – | 83 | 81 | 0.52^[a] | – | – | – |
| CC(Oc1ccc(Cl)cc1)C(O)(Cc1cccnc1Cl)Cn1cncn1 (stereo not shown) [Example I-16] | – | – | – | – | – | 100 | 91 | Eff. % (Botrytis cinerea; 100 ppm of active ingredient): 87%; Eff. % (Puccinia recondita; 100 ppm of active ingredient): 75%; Eff. % (Septoria tritici; 100 ppm of active ingredient): 98% |
| OC(Cc1cccc(Cl)c1)(Cc1cc(Cl)ncc1F)Cn1cncn1 (racemic) [Example I-74] | – | 100 | 100 | – | 2.69^[a] | – | – | – |
| OC(Cc1cc(Cc2ccc(Cl)c(Cl)n2)cc(Cl)n1)(Cn1cncn1)C1(Cl)CC1 (stereo not shown) [Example I-32] | – | – | – | – | 3.58^[a] | – | – | Eff. % (Puccinia recondita; 100 ppm of active ingredient): 75% |
